One data set has as its system 3T3-L1 adipocytes. The experiment in a line: Triglyceride (Oil red O) accumulation during differentiation of 3T3-L1 adipocytes. The class given is cell-based, mouse. How it is done: 3T3-L1 mouse preadipocytes were purchased from the American Type Culture Collection (ATCC). They are cultivated in DHG medium (Dulbecco's modified Eagle's medium+High Glucose 4.5 g/l, GibcoBRL) supplemented with 10% FCS (foetal calf serum, GibcoBRL) and incubated a 37 C+5% CO2 incubator in a humidified atmosphere. For pre-adipocyte differentiation, 3T3-L1 cells were seeded at 50% confluence 3 days before the beginning of the differentiation programme. Confluent cell monolayers (day 0) are switched for 48 h to media containing the adipogenic cocktail: “DHG-L1” medium (DHG that contains 1.5 g/l NaHCO3) supplemented with 10% FCS, 5 μg/ml insulin, 300 μM dibutyryl-cyclicAMP (dbcAMP) and 1 μM dexamethasone. The cells were then refeeded every other day with DHG-L1 containing 10% FCS and 5 μg/ml insulin. At the end, 80-90% of cells were differentiated. […]
To characterize the state of (de)differentiation obtained in the presence of the molecules of interest, triglycerides present in the cells were stained with Oil red O (a dye of the neutral lipids). The absorbance of cell monolayers at 490 nm was measured in a spectrophotometer.

The subject of data set [1] is mouse pancreatic islets, β-cell line INS-1. The settings on record: direct action on β-cells; cited from earlier work.
The test system of data set [2] is mice with combined leptin and LDL-receptor deficiency (double knockout [DKO] mice). The experiment in a line: Blood analyses (glucose, insulin, lipids, HOMA, adiponectin) in obese, dyslipidemic and diabetic DKO mice. The class given is in vivo, mouse. An excerpt: We measured the effect of stevioside on weight, blood variables (e.g. glucose, insulin, lipids), PPAR expression in adipose tissues, and on atherosclerosis in mice with combined leptin and LDL-receptor deficiency (double knockout [DKO] mice).
Homozygous LDL-receptor-knockout mice (LDLR^(−/−)), heterozygous ob/+, and C57BL6 mice were purchased from Jackson Laboratory, Bar Harbor, Me. LDLR^(−/−) mice were backcrossed into a C57BL6 background to the 10th generation. To obtain DKO mice with combined leptin deficiency (ob/ob) and LDL-receptor deficiency, LDLR^(−/−) and ob/+ mice were crossed. All offspring were genotyped by polymerase chain reaction (PCR) techniques. All mice were housed at 22° C. on a fixed 12/12-hour light/dark cycle. Experimental procedures in animals were performed in accordance with protocols approved by the Institutional Animal Care and Research Advisory Committee. All mice were fed standard chow containing 4% fat (Pavan Service). Food intake was ≈5.7 g/d. Mice (about 50 g) were treated with stevioside (N=14; 10 mg/kg), steviol (N=9; 5 mg/kg) or placebo (N=17) for 12 weeks between 12 and 24 weeks of age. Stevioside (Molecular weight: 804) was dissolved in water (1 mg/ml) and 500 μl of the solution was administered orally. Steviol (Molecular weight: 318) was dissolved in water containing 6% NaHCO3 (1 mg/ml) and 250 μl of the solution was administered orally.
Blood of conscious mice was collected by tail bleeding into EDTA tubes after an overnight fast. Plasma was obtained by centrifugation. Plasma cholesterol and triglycerides were measured by means of standard enzymatic colorimetric assays (Boehringer Mannheim), plasma fatty acids (FFA) by means of the FFA-Half Microtest kit (Roche Applied Science), glucose by means of a glucometer (Menarini Diagnostics), plasma insulin and adiponectin by means ELISAs (Mercodia and R&D, respectively). Insulin resistance was calculated by a homeostasis model assessment (HOMA)=fasting serum insulin (mU/L) times fasting blood glucose (mmol/L)/22.5.

The test system of data set [3] is everted gastrointestinal sacs of rats and Caco-2 cell layers. The settings on record: everted gastrointestinal sacs of rats, Caco-2 cell layers; cited from earlier work.
For another data set, the system named is bacteria of the colon. The settings on record: cited from earlier work.
The mark [4] stands for this setting: stevioside 10 mg/kg or steviol 5 mg/kg orally, 12 weeks, compared with placebo mice.
The mark [5] stands for this setting: stevioside 10 mg/kg orally, 12 weeks, compared to baseline levels.

In the case of `C=C1C[C@@]23CC[C@H]4C(C)(CCC[C@@]4(C)C(=O)O[C@@H]4O[C@H](CO)C(O)[C@H](O)C4O)[C@@H]2CCC1(OC1O[C@H](CO)C(O)C(O)C1OC1O[C@H](CO)C(O)[C@H](O)C1O)C3` (stereo in doubt) [stevioside, Kaur-16-en-18-oic acid, 13-[(2-O-b-D-glucopyranosyl-b-D-glucopyranosyl)oxy]-, b-D-glucopyranosyl ester, (4a)-], in the data set with 3T3-L1 adipocytes (50-micromolar (lowest concentration), added during the 7-days differentiation process), the “triglyceride accumulation in adipocytes” value was “did not significantly reduce”. Moreover, the “lipid deposition (triglyceride accumulation) in adipocytes” value with 3T3-L1 adipocytes (200-micromolar (4x higher concentration), added during differentiation, steviol dissolved with DMSO) was “inhibited”. Also, in data set [1], the insulin secretion entry was “stimulation of insulin secretion”. The “plasma concentration of adiponectin” value in data set [2] (after 12 weeks of treatment, before treatment 4729±1652, P=0.003) was 6517 ± 1472 ng/mL. In data set [2] (setting [4]), the FFA level entry was “significantly lower”, the “HOMA values (insulin resistance)” value is listed as “significantly lower”, the cholesterol level entry is listed as “significantly lower” and the glucose level result is “significantly lower”. Moreover, in data set [2] (setting [4]), the insulin level result is “significantly lower” and the triglyceride level result is “significantly lower”. In addition, in data set [2] (setting [5]), the FFA result is on record as “reduced”, the cholesterol entry was “reduced”, the glucose entry is “reduced” and the insulin result is “reduced”. In data set [2] (setting [5]), the triglycerides entry was “reduced”. Also, the insulin sensitivity result in data set [2] (stevioside 10 mg/kg orally, 12 weeks, result of the decrease in glucose and insulin) was “increase”. For the same molecule, the “uptake by the intestinal tract” value in data set [3] is “extremely low”. Also, the “degradation by bacteria of the colon” value with bacteria of the colon is recorded as “degraded”.
